Source: patent publication US7671181B2, “Polynucleotides encoding coccidian parasite casein kinase I, a chemotherapeutic target for antiprotozoal agents” (Merck Sharp & Dohme Corp., priority 2004, dated 2010)

Key:
FLAGTgCDPK3 = FLAGTgCDPK3 (Toxoplasma gondii, UniProt A0A125YQG4); assay: Protein kinase assay, FLAGTgCDPK3; assay type: biochemical; conditions: read-out: IC50, FLAGTgCDPK3; recombinant enzyme, dose response titrations
Experimental: (§1) Protein kinase assays—Casein kinase activity was assayed essentially as described (Donald, R. G. K. et al., 2002, supra) using 96-well phosphocellulose plates (MAPH-NOB, Millipore; Billerica, Mass.) to capture ^33P-phosphorylated peptide or casein substrates. Kinase reactions were carried out in 40 μl volumes containing 25 mM Hepes, pH 7.4, 10 mM MgCl2, 20 mM β-glycerophosphate, 1 mM DTT, 250 μM substrate, 1 mg/mL BSA, 2 μM ATP, and 0.01 μM [γ-^33P]ATP (Perkin-Elmer, 3000 Ci/mmol). The reactions were initiated by the addition of enzyme and incubated at room temperature for 60 min. Casein (5% solution), partially dephosphorylated α-casein and β-casein were obtained from Sigma.
(§2) A variety of commercially available peptide substrates were evaluated. From Calbiochem (San Diego, Calif.): CKI substrate (RRKDLHDDEEDEAMSITA; SEQ ID NO:13); CKII substrate (RRADDSDDDDD; SEQ ID NO:14); Syntide-2 substrate (PLARTLSVAGLPGKK; SEQ ID NO:15); CaM kinase II substrate (281-291) (MHKNETVECLK; SEQ ID NO:16). From Promega: CKI substrate (DDDEESITRR; SEQ ID NO:17) and kemptide (LRRASLG; SEQ ID NO:18). From New England Biolabs (Beverly, Mass.): CKI phosphopeptide substrate (KRRRALS(p)VASLPGL; SEQ ID NO:19), and CKII substrate (RRREEETEEE; SEQ ID NO:20). PKG assays were performed with kemptide as substrate and 10 μM cGMP. CDPK was assayed with Syntide-2 substrate and in the presence of 100 μM CaCl2.

TgCKIα = TgCKIα (Toxoplasma gondii, UniProt Q6QNM1); assay: Casein kinase assay, TgCKIα (recombinant FLAGTgCKIα or partially purified native); assay type: biochemical; set-up: Km(app), native TgCKIα; other: substrate titration, 2 μM ATP; IC50, nativeTgCKIα; other: partially purified native enzyme from Toxoplasma tachyzoites; sensitivity of native TgCKIα phosphopeptide kinase activity (HiTrapQ fractions 5-9); other: 0.2 μM hymenialdisine or 1
Experimental: as §1, with “The reactions were initiated by the addition of enzyme and incubated at room temperature for 60 min.” left out
as §2
Purification of recombinant CKI enzymes—E. coli strain BL21 Origami™ (Novagen) was transformed with FLAGTgCKIα and FLAGTgCKIβ expression vectors, and colonies were expanded into 250 mL LB cultures grown at 37° C. Expression was induced with 1 mM IPTG once cultures had reached an OD600nm of 0.3-0.5, and the transformed bacteria were harvested 4-6 hours later. Cell pellets were resuspended in 15 mL of lysis buffer containing protease inhibitors and lysates prepared as described by the supplier (Bugbuster™ reagents, Novagen). The concentration of NaCl in the lysate was adjusted to 0.5 M, and 0.5 mL of FLAG-agarose beads were added (Sigma). The mixture was allowed to rock in a Nutator mixer (Becton-Dickinson; San Jose, Calif.) for 2 hours at 4° C. The slurry was then poured into an empty column and the matrix washed with 50 mL of wash buffer (50 mM Tris-HCl, pH 7.4, 0.5M NaCl, 10% glycerol, 1 mM DTT, 1 mM EDTA). […] Protein was measured with a micro-BCA reagent (Pierce) following a TCA-sodium deoxycholate step to remove residual FLAG peptide (Brown et al., 1989, Anal. Biochem. 180:136-139). […]
(§3) Preparations of FLAGTgCKIα and FLAGTgCKIβ were purified further on a SMART system FPLC 0.1 mL MonoQ anion exchange column (Pharmacia; New York, N.Y.) equilibrated in buffer A (50 mM Hepes, pH 7.4, 10% glycerol, 1 mM DTT) at room temperature. […] A linear salt gradient was applied (0-500 mM in 3 mL at 100 μl/min) and 100 μl fractions were collected and analyzed by SDS-PAGE and for CKI activity. […]

EtPKG = target: T1, EtPKG (Eimeria tenella, UniProt Q8MMZ8); assay: PKG assay with kemptide, native EtPKG; assay type: biochemical; conditions: native enzyme from Eimeria oocysts; read-out: IC50, nativeEtPKG
T1 construct: Eimeria oocysts (EtCKIα and EtPKG); from tissue; host or cells: Eimeria oocysts
Experimental: as §1, §2

FLAGEtCDPK1 = FLAGEtCDPK1 (Eimeria tenella, UniProt Q3HNM4); assay: Protein kinase assay, FLAGEtCDPK1; assay type: biochemical; conditions: recombinant enzyme, dose response titrations
Experimental: as §1, §2

TgCDPK1 = target: T2, TgCDPK1 (Toxoplasma gondii, UniProt Q9BJF5); assay: CDPK assay with Syntide-2, T. gondii CDPK1; assay type: biochemical
T2 construct: The TgCDPK1 open reading frame was amplified by PCR from a Toxoplasma cDNA library; made in house
Experimental: as §1, §2
Purification of recombinant TgCDPK1 and TgPKG—The TgCDPK1 open reading frame was amplified by PCR from a Toxoplasma cDNA library, using primers based on the published sequence (Kieschnick et al., 2001, supra): sense primer, […] (SEQ ID NO:44); and, antisense primer, […] (SEQ ID NO:45). A C-terminal FLAG epitope tag was appended to the TgCDPK1 open reading frame by an additional round of PCR amplification (KOD polymerase) and the resulting DNA fragment was sub-cloned into a tubulin promoter expression vector (Donald and Liberator, 2002, supra). […]

EtCKIα = EtCKIα (Eimeria tenella, UniProt Q6QNL9); assay: Casein kinase assay, partially purified native EtCKIα; assay type: biochemical; conditions: partially purified native enzyme from Eimeria oocysts; read-out: IC50, nativeEtCKIα
Experimental: as §1, §2
Partial purification of native EtCKIα—The inability to stably express recombinant EtCKIα in T. gondii provided impetus to purify native enzyme from E. tenella parasites (slide 5). A lysate was prepared from 2×10^10 unsporulated oocysts using previously published procedures (Gurnett, A. M. et al., 2002, supra). The first two steps of the purification scheme used were essentially scaled-up from the method described for the purification of native TgCKIα. The lysate was subjected to preparative HiLoad Q anion-exchange chromatography and fractions eluted with a NaCl gradient (0-1 M NaCl). […]

[1] = target: T3, Toxoplasma gondii casein kinase I alpha (TgCKIα), recombinant FLAG-tagged or native, SEQ ID NO:4 (Toxoplasma gondii, UniProt Q6QNM1); assay: Casein kinase assay, inhibition of TgCKIα (recombinant or native forms); assay type: biochemical
T3 construct: same protein
Experimental: as §1
A variety of commercially available peptide substrates were evaluated. From Calbiochem (San Diego, Calif.): CKI substrate (RRKDLHDDEEDEAMSITA; SEQ ID NO:13); CKII substrate (RRADDSDDDDD; SEQ ID NO:14); Syntide-2 substrate (PLARTLSVAGLPGKK; SEQ ID NO:15); CaM kinase II substrate (281-291) (MHKNETVECLK; SEQ ID NO:16). […]
as §3

[2] = target: T4, Toxoplasma gondii calmodulin domain-like protein kinase 1 (FLAGTgCDPK1, recombinant) (Toxoplasma gondii, UniProt Q9BJF5); assay: Kinase assay, inhibition of recombinant TgCDPK1; assay type: biochemical; conditions: CDK inhibitor study (text to Table 2)
T4 construct: FLAG (C); made in house; host or cells: transgenic Toxoplasma gondii parasites
Experimental: as §1
A variety of commercially available peptide substrates were evaluated. […]
Purification of recombinant TgCDPK1 and TgPKG—The TgCDPK1 open reading frame was amplified by PCR from a Toxoplasma cDNA library, using primers based on the published sequence (Kieschnick et al., 2001, supra): sense primer, […] […] A C-terminal FLAG epitope tag was appended to the TgCDPK1 open reading frame by an additional round of PCR amplification (KOD polymerase) and the resulting DNA fragment was sub-cloned into a tubulin promoter expression vector (Donald and Liberator, 2002, supra). […]

T. gondii = assay: Parasite growth inhibition, modified [3H]-uracil uptake assay in infected HFF cell monolayers; assay type: cell-based, Toxoplasma gondii; conditions: Toxoplasma gondii, HFF
Source text: Host cells and parasite cultures—RH strain or RH ΔHXGPRT strain tachyzoites of T. gondii were maintained by serial passage in confluent monolayers of human foreskin fibroblasts (“HFF”) as described (Roos, D. S. et al., 1994, Methods Cell Biol. 45:27-63). A modified [^3H]-uracil uptake assay (Pfefferkorn, E. R. and Pfefferkorn, L. C., 1977, J. Protozool. 24:449-453) adapted for use in 96-well scintillation plates (Cytostar-T, Amersham; Piscataway, N.J.) was used to measure parasite growth inhibition. Each well, previously seeded with HFF cells, was inoculated with T. gondii tachyzoites (2×10^4) in 200 μl of growth media containing 2 μCi [5,6]-^3H-uracil (Perkin-Elmer NEN; Boston, Mass.) and serially diluted compound. Following incubation at 37° C. for 36-48 hours, tritium-incorporation into host cell monolayers was directly counted in a microplate scintillation counter (MicroBeta, PerkinElmer-Wallac).
The only other CDK inhibitor with sub-μM activity against T. gondii was indirubin-3′-monoxime, which gave an IC50 value of 500 nM.

Sequence of TgCKIα (Q6QNM1 whole entry, looked up): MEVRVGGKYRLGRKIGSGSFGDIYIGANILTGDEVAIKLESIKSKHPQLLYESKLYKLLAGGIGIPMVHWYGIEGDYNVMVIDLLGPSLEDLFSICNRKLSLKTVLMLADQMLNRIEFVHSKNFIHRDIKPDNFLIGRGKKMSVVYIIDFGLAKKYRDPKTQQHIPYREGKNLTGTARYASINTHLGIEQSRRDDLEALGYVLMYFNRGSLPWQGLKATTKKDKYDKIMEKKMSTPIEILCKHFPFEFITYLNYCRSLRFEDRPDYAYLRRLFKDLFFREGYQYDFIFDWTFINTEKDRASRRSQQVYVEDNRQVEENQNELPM
T3 sequence (Q6QNM1 whole entry): as the sequence (Q6QNM1 whole entry, looked up) above
Sequence of FLAGTgCDPK3 (A0A125YQG4 entry or part of it): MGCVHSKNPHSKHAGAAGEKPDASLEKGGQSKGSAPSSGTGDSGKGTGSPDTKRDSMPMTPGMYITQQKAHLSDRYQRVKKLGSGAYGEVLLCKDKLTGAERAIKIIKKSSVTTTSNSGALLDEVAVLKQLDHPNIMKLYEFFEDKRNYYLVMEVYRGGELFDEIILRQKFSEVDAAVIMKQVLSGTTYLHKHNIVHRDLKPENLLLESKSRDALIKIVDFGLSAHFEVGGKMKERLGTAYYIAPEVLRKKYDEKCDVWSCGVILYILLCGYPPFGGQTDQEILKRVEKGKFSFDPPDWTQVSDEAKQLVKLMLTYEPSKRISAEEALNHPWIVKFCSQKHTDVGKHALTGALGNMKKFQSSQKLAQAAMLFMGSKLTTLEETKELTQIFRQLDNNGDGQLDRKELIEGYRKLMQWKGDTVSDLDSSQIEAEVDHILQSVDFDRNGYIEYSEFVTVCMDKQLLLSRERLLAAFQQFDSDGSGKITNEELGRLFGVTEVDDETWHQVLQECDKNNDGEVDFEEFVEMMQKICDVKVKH
T1 sequence (Q8MMZ8 whole entry): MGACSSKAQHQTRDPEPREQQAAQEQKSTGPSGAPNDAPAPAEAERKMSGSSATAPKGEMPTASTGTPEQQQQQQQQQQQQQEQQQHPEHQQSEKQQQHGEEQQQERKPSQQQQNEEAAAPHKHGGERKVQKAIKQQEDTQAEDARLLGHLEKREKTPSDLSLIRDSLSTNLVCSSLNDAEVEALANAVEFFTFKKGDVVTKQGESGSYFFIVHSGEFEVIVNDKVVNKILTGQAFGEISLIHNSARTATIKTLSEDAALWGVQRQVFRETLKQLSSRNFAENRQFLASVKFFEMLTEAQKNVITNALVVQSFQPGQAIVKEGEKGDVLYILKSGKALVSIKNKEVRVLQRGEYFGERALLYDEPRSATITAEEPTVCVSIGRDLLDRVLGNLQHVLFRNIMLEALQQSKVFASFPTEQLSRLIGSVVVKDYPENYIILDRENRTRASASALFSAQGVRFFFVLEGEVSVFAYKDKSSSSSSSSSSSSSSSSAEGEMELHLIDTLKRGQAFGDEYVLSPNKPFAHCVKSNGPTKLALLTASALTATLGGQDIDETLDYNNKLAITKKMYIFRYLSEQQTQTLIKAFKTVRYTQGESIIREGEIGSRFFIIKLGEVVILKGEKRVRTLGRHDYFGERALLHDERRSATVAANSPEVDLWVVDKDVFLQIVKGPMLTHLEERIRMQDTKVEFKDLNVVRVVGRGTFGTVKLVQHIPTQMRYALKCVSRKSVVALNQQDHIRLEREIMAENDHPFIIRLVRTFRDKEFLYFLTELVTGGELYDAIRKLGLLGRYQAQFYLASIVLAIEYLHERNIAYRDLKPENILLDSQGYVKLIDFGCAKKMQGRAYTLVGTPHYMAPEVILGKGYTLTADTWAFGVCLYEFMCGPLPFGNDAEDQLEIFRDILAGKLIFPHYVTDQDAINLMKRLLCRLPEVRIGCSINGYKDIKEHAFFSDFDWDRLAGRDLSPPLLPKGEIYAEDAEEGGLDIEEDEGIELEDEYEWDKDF
Sequence of EtCKIα (Q6QNL9 whole entry): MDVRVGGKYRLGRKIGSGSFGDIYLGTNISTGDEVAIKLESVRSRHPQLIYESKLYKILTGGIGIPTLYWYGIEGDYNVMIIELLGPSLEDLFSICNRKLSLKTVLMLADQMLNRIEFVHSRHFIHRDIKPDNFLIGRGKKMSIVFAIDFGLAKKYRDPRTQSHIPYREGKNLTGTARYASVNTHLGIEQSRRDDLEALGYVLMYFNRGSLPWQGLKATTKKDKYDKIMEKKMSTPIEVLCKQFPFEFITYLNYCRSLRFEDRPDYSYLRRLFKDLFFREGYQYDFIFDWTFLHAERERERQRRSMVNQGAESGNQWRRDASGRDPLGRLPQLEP
T4 sequence (Q9BJF5 entry or part of it): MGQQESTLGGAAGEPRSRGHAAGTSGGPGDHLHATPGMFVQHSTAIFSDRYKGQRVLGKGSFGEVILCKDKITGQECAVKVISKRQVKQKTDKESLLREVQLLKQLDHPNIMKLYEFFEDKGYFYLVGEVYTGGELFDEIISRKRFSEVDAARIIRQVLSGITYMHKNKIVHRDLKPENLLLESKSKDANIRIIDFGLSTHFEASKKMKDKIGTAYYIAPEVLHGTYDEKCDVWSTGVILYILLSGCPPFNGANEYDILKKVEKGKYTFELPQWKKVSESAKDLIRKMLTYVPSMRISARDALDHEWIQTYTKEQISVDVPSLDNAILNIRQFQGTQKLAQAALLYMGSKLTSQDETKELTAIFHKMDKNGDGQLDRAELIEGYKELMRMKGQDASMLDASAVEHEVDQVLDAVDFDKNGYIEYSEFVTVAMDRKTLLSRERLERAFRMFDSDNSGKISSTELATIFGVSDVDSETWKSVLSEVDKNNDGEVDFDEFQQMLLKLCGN
T2 sequence (Q9BJF5 entry or part of it): as above
Sequence of FLAGEtCDPK1 (Q3HNM4 entry or part of it): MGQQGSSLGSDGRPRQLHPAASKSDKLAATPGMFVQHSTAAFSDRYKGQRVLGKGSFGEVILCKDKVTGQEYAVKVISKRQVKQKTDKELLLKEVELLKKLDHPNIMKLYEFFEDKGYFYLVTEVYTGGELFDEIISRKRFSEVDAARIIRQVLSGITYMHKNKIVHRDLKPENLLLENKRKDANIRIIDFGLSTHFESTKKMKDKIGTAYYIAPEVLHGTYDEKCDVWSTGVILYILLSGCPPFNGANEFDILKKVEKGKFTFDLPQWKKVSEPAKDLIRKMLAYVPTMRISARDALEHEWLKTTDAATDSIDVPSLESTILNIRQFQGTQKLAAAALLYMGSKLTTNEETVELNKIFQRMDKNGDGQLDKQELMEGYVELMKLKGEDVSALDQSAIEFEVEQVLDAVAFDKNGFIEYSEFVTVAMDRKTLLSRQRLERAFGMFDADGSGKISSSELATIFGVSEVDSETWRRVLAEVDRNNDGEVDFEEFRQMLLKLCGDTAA

CN1CCC(c2ccn3c(-c4ccnc(N)n4)c(-c4ccc(F)cc4)nc3c2)CC1 [Compound 39, 4[2-(4-Fluorophenyl)1-7-(1-methylpiperidin-4-yl)imidazo[1,2-a]pyridin-3-yl]pyrimidin-2-amine]
IC50 (FLAGTgCDPK3): > 10000 nM
IC50 (TgCKIα): 15 nM
IC50 (EtPKG): 0.5 nM
IC50 (FLAGEtCDPK1): 126 nM
IC50 (TgCDPK1): 0.5 nM
IC50 (EtCKIα): 69 nM

O=C1Nc2ccccc2/C1=C1/Nc2ccccc2/C1=N\O [indirubin-3′-monoxime]
IC50 [1]: 172 nM
IC50 [2]: 175 nM
IC50 (T. gondii): 500 nM
